The values below come from patent publication US5714469A, “Method of treating sepsis” (priority 1994, dated 1998).

This test relates to clinical isolate of E. coli isolated from sputum. The experiment in a line: Antibiotic sensitivity by disc-agar diffusion technique. It is filed as cell-based. On the procedure:
A clinical isolate of E. coli isolated from sputum was utilized. […] The organism was animal passed in mice and subsequently recovered and plated onto MacConkey's agar. The reisolated organisms were grown overnight in brain-heart infusion broth, and then stored frozen at -70° C. The inoculate the fibrin clot, organisms from thawed stocks were inoculated into brainheart infusion broth and incubated overnight on a rotary shaker (120 rpm) an 37° C. The E. coli was harvested by centrifugation, washed 3X and finally resuspended in normal saline. The number or organisms was quantified by turbidimentry, and the concentration adjusted with normal saline. All inoculum sizes were based on viable counts determined by scoring colony forming units on MacConkeys agar.
A general note: A growth-free zone around the sample is the usual read-out of agar diffusion tests.
Take `O=C(N[C@H](CO)[C@H](O)c1ccc([N+](=O)[O-])cc1)C(Cl)Cl` [chloramphenicol]: the “antibiotic sensitivity of the E. coli isolate” value (shortened to “antibiotic sensitivity”) is “sensitive”.

Turning to `CC[C@H]1OC(=O)[C@H](C)[C@@H](O[C@H]2C[C@@](C)(OC)[C@@H](O)[C@H](C)O2)[C@H](C)[C@@H](O[C@@H]2O[C@H](C)C[C@H](N(C)C)[C@H]2O)[C@](C)(O)C[C@@H](C)C(=O)[C@H](C)[C@@H](O)[C@]1(C)O` [erythromycin], the “antibiotic sensitivity” value is “resistant”.

As to `NC[C@H]1O[C@H](O[C@H]2[C@H](O)[C@@H](O[C@H]3O[C@H](CO)[C@@H](O)[C@H](N)[C@H]3O)[C@H](N)C[C@@H]2N)[C@H](O)[C@@H](O)[C@@H]1O` [kanamycin], the “antibiotic sensitivity” value is listed as “sensitive”.

As for gentamicin, the “antibiotic sensitivity” value was “sensitive”.

As to `CN(C)[C@@H]1C(O)=C(C(N)=O)C(=O)[C@@]2(O)C(O)=C3C(=O)c4c(O)cccc4[C@@](C)(O)[C@H]3C[C@@H]12` [tetracycline], the “antibiotic sensitivity” value is listed as “sensitive”.

With trimethoprin/sulfamethoxazole, the “antibiotic sensitivity” value is on record as “sensitive”.

Regarding `CC1(C)S[C@@H]2[C@H](NC(=O)[C@H](N)c3ccccc3)C(=O)N2[C@H]1C(=O)O` [ampicillin], the “antibiotic sensitivity” value was “sensitive”.

Regarding `CN[C@H](CC(C)C)C(=O)N[C@H]1C(=O)N[C@@H](CC(N)=O)C(=O)N[C@H]2C(=O)N[C@H]3C(=O)N[C@H](C(=O)N[C@H](C(=O)O)c4cc(O)cc(O)c4-c4cc3ccc4O)[C@H](O)c3ccc(c(Cl)c3)Oc3cc2cc(c3O[C@@H]2O[C@H](CO)[C@@H](O)[C@H](O)[C@H]2O[C@H]2C[C@](C)(N)[C@H](O)[C@H](C)O2)Oc2ccc(cc2Cl)[C@H]1O` [vancomycin], the “antibiotic sensitivity” value is recorded as “resistant”.

Take `CC(=O)OCC1=C(C(=O)O)N2C(=O)[C@@H](NC(=O)Cc3cccs3)[C@H]2SC1` [cephalothin]: the “antibiotic sensitivity” value was “sensitive”.

For the molecule `CC1(C)S[C@@H]2[C@H](NC(=O)Cc3ccccc3)C(=O)N2[C@H]1C(=O)O` [penicillin G], the “antibiotic sensitivity” value is “resistant”.
